Measured values published in PMC7024302, “Ultrashort Cationic Lipopeptides–Effect of N-Terminal Amino Acid and Fatty Acid Type on Antimicrobial Activity and Hemolysis” (Molecules, 2020).
≈ marks a conversion by molar mass, not a printed value. Residues, ends and D or L forms follow the SMILES beside them.

Assays:
[1] = set-up: method as in earlier work; conditions: cited from earlier work
[2] = Determination of peptide hydrophobicity with RP-HPLC (adjusted retention time); type: physicochemical; conditions: Table 3; adjusted retention time as hydrophobicity; RP-HPLC C18, linear 10–55% acetonitrile over 60 min, 0.1% TFA, 25.0 °C, UV 214 nm, triplicate
Procedure, shortened: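 Peptides at 1 g/L in water with 0.1% TFA run on a C18 column (3.0 × 100 mm, 5 µm). Elution with a linear 10–55% acetonitrile gradient over 60 min, 0.1% TFA in both eluents, 0.5 mL/min, 25.0 ± 0.1 °C. Detection at 214 nm, in triplicate.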

S. aureus ATCC 25923 = type: cell-based, Staphylococcus aureus; conditions: ATCC 25923, 18 h
Procedure, shortened: (§1)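 Broth microdilution per CLSI: bacteria at 5 × 10^5 CFU/mL in MHB were exposed to lipopeptides (0.5–256 µg/mL) for 18 h at 37 °C. MIC was the lowest concentration inhibiting noticeable growth; run in triplicate.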

[3] = tested on: S. aureus ATCC 33591 (MRSA); type: cell-based, Staphylococcus aureus; conditions: ATCC 33591, 18 h
Procedure, shortened: as §1

P. aeruginosa ATCC 9027 = type: cell-based, Pseudomonas aeruginosa; conditions: ATCC 9027, 18 h
Procedure, shortened: as §1

C. albicans ATCC 10231 = type: cell-based, Candida albicans; conditions: ATCC 10231, 24 h, pH 7
[4] = tested on: human red blood cells (hRBCs); type: cell-based; conditions: red cells of human, 1 h
Procedure, shortened: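 Fresh EDTA-anticoagulated human RBCs, PBS-washed, at 4% (v/v) final were exposed to lipopeptides at 0.5–256 µg/mL for 1 h at 37 °C. Released haemoglobin in supernatant read at 540 nm; PBS as 0% and 1% Triton X-100 as 100% haemolysis. Triplicates.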

E. faecium ATCC 700221 = type: cell-based, Enterococcus faecium; conditions: ATCC 700221, 18 h
Procedure, shortened: as §1

[5] = tested on: K. pneumoniae ATCC 700603; type: cell-based, Klebsiella pneumoniae; conditions: ATCC 700603, 18 h
Procedure, shortened: as §1

[6] = tested on: A. baumannii ATCC BAA-1605; type: cell-based, Acinetobacter baumannii; conditions: ATCC BAA-1605, 18 h
Procedure, shortened: as §1

K. aerogenes ATCC 13048 = type: cell-based, Klebsiella aerogenes; conditions: ATCC 13048, 18 h
Procedure, shortened: as §1

tR’ [2] [min] | MIC SA (S. aureus ATCC 25923) [µg/mL] | MIC S [3] [µg/mL] | MIC PA (P. aeruginosa ATCC 9027) [µg/mL] | MIC CA (C. albicans ATCC 10231) [µg/mL] | HC50 [4] | MIC E1 (E. faecium ATCC 700221) [µg/mL] | MIC K [5] [µg/mL] | MIC A [6] [µg/mL] | MIC E2 (K. aerogenes ATCC 13048) [µg/mL] | SMILES | pKa of the side chain [1]
 |  |  |  |  |  |  |  |  |  | NCCCC[C@H](N)C(=O)O [Lys, lysine] | 10.67
36.17 | 8 (≈ 11.9 µM) | 8 (≈ 11.9 µM) | 16 (≈ 23.7 µM) | 32 (≈ 47.4 µM) | 123.08 (±1.12) µg/mL | 16 (≈ 23.7 µM) | 128 (≈ 190 µM) | 32 (≈ 47.4 µM) | 128 (≈ 190 µM) | CCCCCCCCCCCC(=O)N[C@@H](Cc1ccc(O)cc1)C(=O)N[C@@H](CCCNC(=N)N)C(=O)N[C@@H](CCCNC(=N)N)C(N)=O [compound 101, C12-YRR-NH2] (HELM PEPTIDE1{[CCCCCCCCCCCC(=O)[*:2]].Y.R.R.[am]}$$$$V2.0) | 
42.73 | 4 (≈ 5.69 µM) | 4 (≈ 5.69 µM) | 8 (≈ 11.4 µM) | 4 (≈ 5.69 µM) | 46.52 (±5.24) µg/mL | 4 (≈ 5.69 µM) | 32 (≈ 45.5 µM) | 32 (≈ 45.5 µM) | 64 (≈ 91 µM) | CCCCCCCCCCCCCC(=O)N[C@@H](Cc1ccc(O)cc1)C(=O)N[C@@H](CCCNC(=N)N)C(=O)N[C@@H](CCCNC(=N)N)C(N)=O [compound 102, C14-YRR-NH2] (HELM PEPTIDE1{[CCCCCCCCCCCCCC(=O)[*:2]].Y.R.R.[am]}$$$$V2.0) | 
